Values after ≈ are worked out from the molar mass of the structure shown. Like-named read-outs stand apart in the source and are kept apart here.
Tests used:
[1] = system: CPX Brighton; assay: organism not typed; type: cell-based, cowpox
[2] = system: VAC Copenhagen; assay: microbe, parasite or virus in culture; type: cell-based, vaccinia virus
[3] = system: MPX Zaire (V79-1-005-Scab); assay: organism not typed; type: cell-based, monkeypox
[4] = system: VAR-BSH (1975 Bangladesh isolate of VAR major); assay: organism not typed; type: cell-based, variola major
[5] = system: VAR-GAR (1966 Brazil Garcia isolate of VAR minor); assay: organism not typed; type: cell-based, variola minor
[6] = system: MPX Zaire (V79-1-005-Scab); assay: organism not typed; type: cell-based, monkeypox; remark: listed apart in the source
[7] = system: CPX; design: species or system mice; conditions: mouse, in vivo
[8] = system: VAC Copenhagen; assay: microbe, parasite or virus in culture; type: cell-based, vaccinia virus; remark: listed apart in the source
[9] = system: Vero cells
[10] = system: VAR-BSH (1975 Bangladesh isolate of VAR major); assay: organism not typed; type: cell-based, variola major; remark: listed apart in the source
[11] = system: LLC-MK2 cells
[12] = system: VAR-YAM (1946 Japan Yamada isolate of VAR major); assay: organism not typed; type: cell-based, variola major
[13] = system: VAC; design: species or system mice; conditions: mouse, in vivo
[14] = system: VAR-GAR (1966 Brazil Garcia isolate of VAR minor); assay: organism not typed; type: cell-based, variola minor; remark: listed apart in the source
[15] = system: CPX Brighton; assay: organism not typed; type: cell-based, cowpox; remark: listed apart in the source
[16] = system: VAR-YAM (1946 Japan Yamada isolate of VAR major); assay: organism not typed; type: cell-based, variola major; remark: listed apart in the source

Compound | Therapeutic index (TI) CPX Vero [1] | Therapeutic index (TI) VAC Vero [2] | Therapeutic index (TI) MPX Vero [3] | Therapeutic index (TI) VAR-BSH Vero [4] | Therapeutic index (TI) VAR-GAR LLC-MK2 [5] | Therapeutic index (TI) MPX LLC-MK2 [6] | protective effect on CPX-infected mice [7] | Therapeutic index (TI) VAC LLC-MK2 [8] | Therapeutic index (TI) VAR-BSH LLC-MK2 [10] | Therapeutic index (TI) VAR-YAM Vero [12] | protective effect on VAC-infected mice [13] | Therapeutic index (TI) VAR-GAR Vero [14] | Therapeutic index (TI) CPX LLC-MK2 [15] | Therapeutic index (TI) VAR-YAM LLC-MK2 [16] | further results
Nc1nccc2c1ncn2C1C=C(CO)C(O)C1O (single isomer, unassigned; (-)) [C3-Npc A, (−)-9-[trans-2′-trans-3′-dihydroxy-4′-hydroxymethyl-cyclopent-4′-enyl]-3-deazaadenine] | 1.0 | 5000 | 10000 | 3333 | 222 | 2000 | modest protective effect | 2000 | 213 | 2500 | modest protective effect | 2500 | 1.0 | 417 | IC50 ([1]; Vero, read-out: IC50 CPX Vero): > 100 µg/mL; IC50 ([2]; Orthopoxvirus vaccinia, Vero, read-out: IC50 VAC Vero): 0.02 µg/mL (≈ 0.0763 µM); IC50 ([3]; Vero, read-out: IC50 MPX Vero): 0.01 µg/mL (≈ 0.0381 µM); IC50 ([4]; Vero, read-out: IC50 VAR-BSH Vero): 0.03 µg/mL (≈ 0.114 µM); IC50 ([5]; LLC-MK2, read-out: IC50 VAR-GAR LLC-MK2): 0.45 µg/mL (≈ 1.72 µM); IC50 ([6]; LLC-MK2, read-out: IC50 MPX LLC-MK2): 0.05 µg/mL (≈ 0.191 µM); IC50 ([8]; Orthopoxvirus vaccinia, LLC-MK2, read-out: IC50 VAC LLC-MK2): 0.05 µg/mL (≈ 0.191 µM); Cytotoxicity TC50 Vero ([9]; African green monkey): >100 µg/mL; IC50 ([10]; LLC-MK2, read-out: IC50 VAR-BSH LLC-MK2): 0.47 µg/mL (≈ 1.79 µM); Cytotoxicity TC50 LLC-MK2 ([11]; rhesus monkey): >100 µg/mL; IC50 ([12]; Vero, read-out: IC50 VAR-YAM Vero): 0.04 µg/mL (≈ 0.153 µM); IC50 ([14]; Vero, read-out: IC50 VAR-GAR Vero): 0.04 µg/mL (≈ 0.153 µM); IC50 ([15]; LLC-MK2, read-out: IC50 CPX LLC-MK2): > 100 µg/mL; IC50 ([16]; LLC-MK2, read-out: IC50 VAR-YAM LLC-MK2): 0.24 µg/mL (≈ 0.915 µM)
Nc1nccc2c1ncn2[C@@H]1C[C@@H](CO)[C@H](O)[C@@H]1O [C-ca3-Ado, Carbocyclic 3-deazaadenosine] | 1.0 | 83.3 | 250 | 83.3 | 22.7 | 125 | modest protective effect | 29.4 | 62.5 | 18.9 | modest protective effect | 62.5 | 4.0 | 71.4 | IC50 CPX Vero [1]: >100 µg/mL; IC50 VAC Vero [2]: 1.2 µg/mL (≈ 4.54 µM); IC50 MPX Vero [3]: 0.4 µg/mL (≈ 1.51 µM); IC50 VAR-BSH Vero [4]: 1.2 µg/mL (≈ 4.54 µM); IC50 VAR-GAR LLC-MK2 [5]: 4.4 µg/mL (≈ 16.6 µM); IC50 MPX LLC-MK2 [6]: 0.8 µg/mL (≈ 3.03 µM); IC50 VAC LLC-MK2 [8]: 3.4 µg/mL (≈ 12.9 µM); Cytotoxicity TC50 Vero [9]: >100 µg/mL; IC50 VAR-BSH LLC-MK2 [10]: 1.6 µg/mL (≈ 6.05 µM); Cytotoxicity TC50 LLC-MK2 [11]: >100 µg/mL; IC50 VAR-YAM Vero [12]: 5.3 µg/mL (≈ 20.1 µM); IC50 VAR-GAR Vero [14]: 1.6 µg/mL (≈ 6.05 µM); IC50 CPX LLC-MK2 [15]: 25.2 µg/mL (≈ 95.4 µM); IC50 VAR-YAM LLC-MK2 [16]: 1.4 µg/mL (≈ 5.3 µM)

From publication PMC9533837 (Antiviral Research, 2003)
